Experimental data published in US7560106B2, “Rationally designed heparinases derived from heparinase I and II and methods of sequencing therewith” (Massachusetts Institute of Technology, priority 1998, dated 2009).

Tests used:
heparinase I [1] = biological target: T1, heparinase I (Pedobacter heparinus, UniProt Q05819); format: binding, Flavobacterium heparinum
heparinase I [2] = biological target: T1, heparinase I; format: biochemical, Flavobacterium heparinum; settings: 30 minutes preincubation, 50 μM WRK, pH 7
heparinase I [3] = biological target: T1, heparinase I; assay: Effect of lanthanides on heparinase I activity (232 nm assay); format: biochemical, Flavobacterium heparinum; settings: 15 minutes preincubation; 4 mg/mL heparin, 5 mM calcium, pH 6.5
heparinase II [4] = biological target: T2, heparinase II (Pedobacter heparinus, UniProt C6XZB6); assay: 4-VP, NEM, IAA and IAM inactivation of heparinase II; format: biochemical, Flavobacterium heparinum
T2 sequence (C6XZB6 26-772): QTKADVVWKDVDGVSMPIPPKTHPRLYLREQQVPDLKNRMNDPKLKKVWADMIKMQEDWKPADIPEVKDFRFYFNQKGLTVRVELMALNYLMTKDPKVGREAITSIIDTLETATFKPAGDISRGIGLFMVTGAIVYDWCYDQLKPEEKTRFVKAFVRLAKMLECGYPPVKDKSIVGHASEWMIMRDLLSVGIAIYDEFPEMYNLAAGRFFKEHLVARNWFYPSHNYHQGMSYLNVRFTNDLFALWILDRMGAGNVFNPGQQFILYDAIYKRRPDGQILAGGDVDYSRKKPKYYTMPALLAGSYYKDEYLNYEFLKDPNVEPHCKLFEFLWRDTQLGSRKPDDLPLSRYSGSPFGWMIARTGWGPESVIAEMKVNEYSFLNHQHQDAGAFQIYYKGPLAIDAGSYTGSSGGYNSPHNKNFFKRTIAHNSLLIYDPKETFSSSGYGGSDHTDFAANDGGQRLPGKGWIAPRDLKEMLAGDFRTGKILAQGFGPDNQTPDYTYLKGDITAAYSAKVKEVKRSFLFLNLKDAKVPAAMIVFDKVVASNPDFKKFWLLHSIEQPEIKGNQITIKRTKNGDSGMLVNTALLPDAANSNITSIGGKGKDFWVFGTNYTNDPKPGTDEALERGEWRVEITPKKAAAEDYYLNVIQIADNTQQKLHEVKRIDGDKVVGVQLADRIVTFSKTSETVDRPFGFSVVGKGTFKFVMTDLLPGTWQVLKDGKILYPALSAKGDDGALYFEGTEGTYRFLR
Method: 4-VP, NEM IAA, and AM Inactivation Heparinase II (100 μg/ml) was incubated with varying concentrations of either 4-VP, NEM, IAA or IAM (Lundblad, R. L. (1995) Techniques in Protein Modification. pp. 63-91, CRC Press, Boca Raton). Aqueous stock solutions ([…]) of each reagent was prepared immediately before use. For NEM and 4-VP the concentrations of modifying reagent were varied from 0.2-2 mM. In the case of IAA or IAM, the concentrations of the reagent ranged from 1-10 mM. All reactions were conducted in 50 mM sodium-phosphate buffer, pH 7.0, at room temperature. The time course of inactivation was monitored in each case, time courses for each of the reagents were compared using either heparin or heparan sulfate as the substrate.

heparinase II [5] = biological target: T2, heparinase II; assay: DTNB modification and inactivation of heparinase II; format: biochemical, Flavobacterium heparinum
Excerpt: Heparinase II Activity Assay. Native heparinase II from Flavobacterium heparinum, was purified as described previously (Godavarti, R., and Sasisekharan, R (1996c) Biochem. Biophys. Res. Comm. 229, 770-777). The UV 232 nm assay to quantify native heparinase II enzymatic activity was similar to that reported for heparinase I (Bernstein, H., Yang, V. C., Cooney, C. L., Langer, R. (1988) Meth. Enzym. 137, 515-29). Briefly, the course of the reaction is monitored by measuring the increase in absorbance at 232 nm as a function of time under saturating substrate concentrations. With heparin as the substrate, the reaction was carried out at a concentration of 4 mg/ml in 50 mM sodium phosphate buffer, pH 7.3. With 2 mg/ml heparan sulfate, the reaction was measured in 50 mM sodium phosphate buffer, pH 6.9 (Sasisekharan, R., Moses, M. A., Nugent, M. A., Cooney, C. L., Langer, R. (1994) Proc. Natl. Acad. Sci., USA 91, 1524-1528). The temperature for all enzymatic activity measurements was kept constant at 35° C.
DTNB Modification Studies. (A) Inactivation with DTNB. Heparinase II (100 μg/ml) was incubated with DTNB (0.1-0.5 mM). A DTNB stock solution was made by dissolving DTNB in ethanol and an aliquot was added to the reaction mixture (Lundblad, R. L. (1995) Techniques in Protein Modification. pp. 63-91, CRC Press, Boca Raton).
(B) Quantification of DTNB—modified residues of heparinase II. Quantification of DTNB-modified heparinase II residues was determined by difference spectra. At time zero, 2 mM DTNB was added to the sample cuvette containing heparinase II (825 μg/ml) in sodium phosphate buffer, pH 7.0. The change in absorbance at 410 nm was monitored every. 30 seconds for 10 minutes. To account for the decomposition of DTNB in the reaction mixture, a control was also done by monitoring the change in absorbance at 410 nm with only DTNB (2 mM) in 50 mM sodium phosphate buffer, pH 7.0. Heparinase II activity assays were also performed on the reaction mixture. The number of heparinase II cysteine residues modified was determined using ∈=13,600 M cm^−1 (Lundblad, R. L. (1995) Techniques in Protein Modification. pp. 63-91, CRC Press, Boca Raton). A similar experiment was completed after preincubating the enzyme with heparin for 30 minutes.

[6] = Exhaustive digest and HPLC analysis of saccharide products of heparinase II and mutants, heparin substrate; settings: exhaustive digest 18 hours at 30° C.
Method: HPLC Analysis of Saccharide Products of Heparinase II Activity. Heparin or heparan sulfate was degraded by heparinase II or one of the recombinant heparinases for 18 h at 30° C. The reaction was stopped by boiling and the samples were injected onto a POROS Q/M (4.6×100 mm) anion-exchange column connected to a BIOCAD system (PerSeptive Biosystems, Framingham, Mass.) (Godavarti, R., and Sasisekharan, R (1996c) Biochem. Biophys. Res. Comm. 229, 770-777). A salt gradient of 0-2 M NaCI in 10 mM Tris pH 7.0 was run and products were monitored at 232 nm.
Exhaustive digests of both 4 mg/ml heparin and 2 mg/ml heparan sulfate were completed and the resulting products analyzed with a Perfusion Chromatography system in a fashion similar to the analysis completed for heparinase I (Godavarti, R., and Sasisekharan, R (1996c) Biochem. Biophys. Res. Comm. 229, 770-777). Running buffer used as 10 mM Tris, pH 7.0 and the salt gradient was 0-2 M NaCl over the course of ten minutes.
After purification, each of these four wild-type and mutant enzymes was characterized via exhaustive (i.e., 18 hours at 30° C.) substrate digests to determine product profiles. Perfusion chromatography profiles of the desaccharide products of the three cysteine mutants and the r-heparinase II were analyzed using either heparin and heparan sulfate as the substrate.

[7] = Processivity of heparinase I on heparin; format: biochemical
[8] = Heparinase I activity as a function of calcium concentration (K0.5, calcium dependence); format: biochemical
In short: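 Heparinase I mutant activity was measured by UV absorbance at 232 nm in 100 mM MOPS, pH 7.0, with calcium varied from 0 to 10 mM. Activity is given as IU (μmol product/min) using ε=−3800 M^−1cm^−1.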

[9] = absence of calcium; shown previously; cited from earlier work
[10] = 2 mM DTNB, 10 minutes, enzyme preincubated with heparin
[11] = 2 mM DTNB, 10 minutes, without heparin preincubation

## [Ca+2] [calcium]
Heparinase I [1]
  calcium concentration sufficient to compete with terbium for binding to heparinase I: 2 mM
Heparinase I [2]
  K0.5 of protection from WRK-mediated inactivation: 980 µM

## [Lu+3] [Lu^3+, lutetium]
Heparinase I [3]
  IC50: 212 µM

## [Tb+3] [terbium]
Heparinase I [3]
  IC50: 39 µM
Heparinase I [1]
  terbium equivalents at which fluorescence intensity stops increasing: 10 equivalents

## C=Cc1ccncc1 [4-VP, 4-vinylpyridine]
Heparinase II [4]
  inhibition of heparinase II activity, in words: inhibited heparinase II activity in a dose-dependent fashion

## CCN1C(=O)C=CC1=O [NEM, N-ethylmaleimide]
Heparinase II [4]
  inhibition of heparinase II activity, in words: inhibited heparinase II activity in a dose-dependent fashion

## O=C(O)CI [IAA, iodoacetic acid]
Heparinase II [4]
  inhibition of heparinase II activity, in words: least effective

## O=C(O)c1cc(SSc2ccc([N+](=O)[O-])c(C(=O)O)c2)ccc1[N+](=O)[O-] [DTNB, 5,5′-dithiobis-(2-nitrobenzoic acid)]
Heparinase II [5]; [10]
  loss of activity: 25%
  number of cysteines modified: 1.3 cysteines
Heparinase II [5]; [11]
  loss of initial activity: 80%
  number of cysteines modified: 2.4 cysteines
Heparinase II [5]; DTNB 0-0.5 mM, read-out: second-order rate constant of inactivation (converted)
  kinact/KI: 10.2 M⁻¹ s⁻¹

B1: C189A: heparinase II cysteine to alanine mutant at position 189 (protein, UniProt C6XZB6 26-772, looked up, variant C189A)
Heparin and heparin-sulfate …: QTKADVVWKDVDGVSMPIPPKTHPRLYLREQQVPDLKNRMNDPKLKKVWADMIKMQEDWKPADIPEVKDFRFYFNQKGLTVRVELMALNYLMTKDPKVGREAITSIIDTLETATFKPAGDISRGIGLFMVTGAIVYDWCYDQLKPEEKTRFVKAFVRLAKMLEAGYPPVKDKSIVGHASEWMIMRDLLSVGIAIYDEFPEMYNLAAGRFFKEHLVARNWFYPSHNYHQGMSYLNVRFTNDLFALWILDRMGAGNVFNPGQQFILYDAIYKRRPDGQILAGGDVDYSRKKPKYYTMPALLAGSYYKDEYLNYEFLKDPNVEPHCKLFEFLWRDTQLGSRKPDDLPLSRYSGSPFGWMIARTGWGPESVIAEMKVNEYSFLNHQHQDAGAFQIYYKGPLAIDAGSYTGSSGGYNSPHNKNFFKRTIAHNSLLIYDPKETFSSSGYGGSDHTDFAANDGGQRLPGKGWIAPRDLKEMLAGDFRTGKILAQGFGPDNQTPDYTYLKGDITAAYSAKVKEVKRSFLFLNLKDAKVPAAMIVFDKVVASNPDFKKFWLLHSIEQPEIKGNQITIKRTKNGDSGMLVNTALLPDAANSNITSIGGKGKDFWVFGTNYTNDPKPGTDEALERGEWRVEITPKKAAAEDYYLNVIQIADNTQQKLHEVKRIDGDKVVGVQLADRIVTFSKTSETVDRPFGFSVVGKGTFKFVMTDLLPGTWQVLKDGKILYPALSAKGDDGALYFEGTEGTYRFLR
[6]
  degradation product profile, heparin substrate: closely matched those of both r-heparinase II and native heparinase II

B2: C348A: heparinase II cysteine to alanine mutant at position 348 (protein, UniProt C6XZB6 26-772, looked up, variant C348A)
Heparin and heparin-sulfate …: QTKADVVWKDVDGVSMPIPPKTHPRLYLREQQVPDLKNRMNDPKLKKVWADMIKMQEDWKPADIPEVKDFRFYFNQKGLTVRVELMALNYLMTKDPKVGREAITSIIDTLETATFKPAGDISRGIGLFMVTGAIVYDWCYDQLKPEEKTRFVKAFVRLAKMLECGYPPVKDKSIVGHASEWMIMRDLLSVGIAIYDEFPEMYNLAAGRFFKEHLVARNWFYPSHNYHQGMSYLNVRFTNDLFALWILDRMGAGNVFNPGQQFILYDAIYKRRPDGQILAGGDVDYSRKKPKYYTMPALLAGSYYKDEYLNYEFLKDPNVEPHAKLFEFLWRDTQLGSRKPDDLPLSRYSGSPFGWMIARTGWGPESVIAEMKVNEYSFLNHQHQDAGAFQIYYKGPLAIDAGSYTGSSGGYNSPHNKNFFKRTIAHNSLLIYDPKETFSSSGYGGSDHTDFAANDGGQRLPGKGWIAPRDLKEMLAGDFRTGKILAQGFGPDNQTPDYTYLKGDITAAYSAKVKEVKRSFLFLNLKDAKVPAAMIVFDKVVASNPDFKKFWLLHSIEQPEIKGNQITIKRTKNGDSGMLVNTALLPDAANSNITSIGGKGKDFWVFGTNYTNDPKPGTDEALERGEWRVEITPKKAAAEDYYLNVIQIADNTQQKLHEVKRIDGDKVVGVQLADRIVTFSKTSETVDRPFGFSVVGKGTFKFVMTDLLPGTWQVLKDGKILYPALSAKGDDGALYFEGTEGTYRFLR
modifications: heparinase II
[6]
  degradation product profile, heparin substrate: completely inactive

B3: heparinase I: 42,500 Da enzyme from the periplasm of F. heparinum that degrades heparin-like glycosaminoglycans (protein, listed as Flavobacterium heparinum)
chain: MKKQILYLIVLQQLFLCSAYAQQKKSGNIPYRVNVQADSAKQKAIIDNKWVAVGINKPYALQYDDKLRFNGKPSYRFELKAEDNSLEGYAAGETKGRTELSYSYATTNDFKKFPPSVYQNAQKLKTVYHYGKGICEQGSSRSYTFSVYIPSSFPDNATTIFAQWHGAPSRTLVATPEGEIKTLSIEEFLALYDRMIFKKNIAHDKVEKKDKDGKITYVAGKPNGWKVEQGGYPTLAFGFSKGYFYIKANSDRQWLTDKADRNNANPENSEVMKPYSSEYKTSTIAYKMPFAQFPKDCWITFDVAIDWTKYGKEANTILKPGKLDVMMTYTKNKKPQKAHIVNQQEILIGRNDDDGYYFKFGIYRVGNSTVPVTYNLSGYSETAR
[7]
  processivity: ~90%
[8]
  activity in 2 mm Ca++ relative to absence of calcium: ~10 ×
  increase in activity upon introduction of millimolar concentrations of calcium: five-fold increase in activity
[9]
  salt concentration of elution from heparin-POROS column: around 500 mM
